Measurements from US6339045B1, “N-(unsubstituted or substituted)-4-substituted-6-(unsubstituted or substituted)phenoxy-2-pyridinecarboxamides or thiocarboxamides, processes for producing the same, and herbicides” (Kureha Kagaku Kogyo Kabushiki Kaisha, priority 1995, dated 2002).

Experiments:
Experiment in all cases: Herbicidal effect by foliage and soil treatment
Format in all cases: in vivo
Settings in all cases: 10 g ai/10a, evaluated after 14 days
[1] = tested on: field bindweed (Convolvulus arvensis)
In short: (§1)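 Greenhouse pot test at 19–25 °C: spray of aqueous Tween 20 formulation onto foliage and soil of seedlings at cotyledonal–bifoliate stage, dose per area predetermined. Scoring on a rating scale after 14 days versus untreated.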

[2] = tested on: redroot pigweed (Amaranthus retroflexus)
In short: as §1

[3] = tested on: cleavers (Galium aparine)
In short: as §1

[4] = tested on: common chickweed (Stellaria media)
In short: as §1

[5] = tested on: common blackjack (Bidens pilosa)
In short: as §1

[6] = tested on: ivyleafspeedwell (Veronica hederaefolia)
In short: as §1

[7] = tested on: kediock (Sinapis arvensis)
In short: as §1

[8] = tested on: black nightshade (Solanum nigrum)
In short: as §1

[9] = tested on: wild chamomile (Matricaria chamomilla)
In short: as §1

[10] = tested on: sicklepod (Cassia obtusifolia)
In short: as §1

[11] = tested on: velvetleaf (Abutilon theophrasti)
In short: as §1

SMILES	herbicidal activity rating, CA (Convolvulus arvensis) [1]	herbicidal activity rating, AR (Amaranthus retroflexus) [2]	herbicidal activity rating, GA (Galium aparine) [3]	herbicidal activity rating, SM (Stellaria media) [4]	herbicidal activity rating, BP (Bidens pilosa) [5]	herbicidal activity rating, VH (Veronica hederaefolia) [6]	herbicidal activity rating, SA (Sinapis arvensis) [7]	herbicidal activity rating, SN (Solanum nigrum) [8]	herbicidal activity rating, MC (Matricaria chamomilla) [9]	herbicidal activity rating, CO (Cassia obtusifolia) [10]	herbicidal activity rating, AT (Abutilon theophrasti) [11]
COc1cc(Oc2cccc(C(F)(F)F)c2)nc(C(=O)NC2CCCC2)c1 [Compound I-50]	5 (percentage of weeds killed was not less than 80%)	5 (percentage of weeds killed was not less than 80%)	5 (percentage of weeds killed was not less than 80%)	5 (percentage of weeds killed was not less than 80%)	5 (percentage of weeds killed was not less than 80%)	5 (percentage of weeds killed was not less than 80%)	5 (percentage of weeds killed was not less than 80%)	5 (percentage of weeds killed was not less than 80%)	5 (percentage of weeds killed was not less than 80%)	4 (percentage of weeds killed was not less than 60% and less than 80%)	4 (percentage of weeds killed was not less than 60% and less than 80%)
CCNC(=O)c1cc(OC)cc(Oc2cccc(C(F)(F)F)c2)n1 [Compound I-51]	4 (percentage of weeds killed was not less than 60% and less than 80%)	5 (percentage of weeds killed was not less than 80%)	5 (percentage of weeds killed was not less than 80%)	5 (percentage of weeds killed was not less than 80%)	3 (percentage of weeds killed was not less than 40% and less than 60%)	5 (percentage of weeds killed was not less than 80%)	5 (percentage of weeds killed was not less than 80%)	5 (percentage of weeds killed was not less than 80%)	4 (percentage of weeds killed was not less than 60% and less than 80%)	5 (percentage of weeds killed was not less than 80%)	5 (percentage of weeds killed was not less than 80%)
CCCCCNC(=O)c1cc(OC)cc(Oc2cccc(C(F)(F)F)c2)n1 [Compound I-52]	5 (percentage of weeds killed was not less than 80%)	5 (percentage of weeds killed was not less than 80%)	5 (percentage of weeds killed was not less than 80%)	5 (percentage of weeds killed was not less than 80%)	3 (percentage of weeds killed was not less than 40% and less than 60%)	5 (percentage of weeds killed was not less than 80%)	5 (percentage of weeds killed was not less than 80%)	5 (percentage of weeds killed was not less than 80%)	3 (percentage of weeds killed was not less than 40% and less than 60%)	4 (percentage of weeds killed was not less than 60% and less than 80%)	4 (percentage of weeds killed was not less than 60% and less than 80%)
CSc1cc(Oc2cccc(C(F)(F)F)c2)nc(C(=O)NC(C)C)c1 [Compound I-55, N-(i-propyl)-4-methylmercapto-6-{3-(trifluoromethyl)phenoxy}-2-pyridine carboxamide]	4 (percentage of weeds killed was not less than 60% and less than 80%)	5 (percentage of weeds killed was not less than 80%)	5 (percentage of weeds killed was not less than 80%)	4 (percentage of weeds killed was not less than 60% and less than 80%)	4 (percentage of weeds killed was not less than 60% and less than 80%)	5 (percentage of weeds killed was not less than 80%)	4 (percentage of weeds killed was not less than 60% and less than 80%)	5 (percentage of weeds killed was not less than 80%)	3 (percentage of weeds killed was not less than 40% and less than 60%)	5 (percentage of weeds killed was not less than 80%)	4 (percentage of weeds killed was not less than 60% and less than 80%)
CNc1cc(Oc2cccc(C(F)(F)F)c2)nc(C(=O)NC(C)C)c1 [Compound I-56, N-(i-propyl)-4-methylamino-6-{3-(trifluoromethyl)phenoxy}-2-pyridine carboxamide]	5 (percentage of weeds killed was not less than 80%)	5 (percentage of weeds killed was not less than 80%)	5 (percentage of weeds killed was not less than 80%)	4 (percentage of weeds killed was not less than 60% and less than 80%)	4 (percentage of weeds killed was not less than 60% and less than 80%)	5 (percentage of weeds killed was not less than 80%)	5 (percentage of weeds killed was not less than 80%)	5 (percentage of weeds killed was not less than 80%)	4 (percentage of weeds killed was not less than 60% and less than 80%)	4 (percentage of weeds killed was not less than 60% and less than 80%)	5 (percentage of weeds killed was not less than 80%)
